“Also recorded” adds a separate entry of the source.
What was measured:
[1] = In vitro skin diffusion through shed snake skin in horizontal flow-through diffusion cells; assay type: in vitro ADME, Children's Python; conditions: result in words
Excerpt: The Children's Python shed snake skin was obtained during natural shedding and the dorsal skin was used. Shed snake skin has shown to be a suitable model membrane for human skin by Itoh, et al., Use of Shed Snake Skin as a Model Membrane for In Vitro Percutaneous Penetration Studies: Comparison with Human Skin Pharm.
Method of Conducting In-Vitro Skin Diffusion Experiments in Horizontal Diffusion Cells
A modified stainless steel flow-through diffusion cell assembly based on that first shown by Cooper in J. Pharm. Sci. 73, 1984, was used to perform the experiments on diffusion of the drugs from various donor compositions through snake skin.
Topical formulations are weighed out onto the skin substrate which has an area of 0.79 cm^2. Active substance penetrates through the skin and into the receptor solution in the bottom section of the cell. Inlet and outlet tubes connected to the receptor chamber maintain skin conditions.
The temperature of the skin was maintained at 32° C.
The receptor solution consisted of 50% propylene glycol in water, made isotonic with 0.9% sodium chloride and preserved with 0.1% sodium azide.
The concentration of applied drug in each diffusion cell sample was measured using high pressure liquid chromatography (HPLC) and absorbance detection. The results reported for each experiment are average values of the replicate diffusion cells. […]

Candida albicans = conditions: result in words
Method: The gels and cream were applied to round glass cover slips of 5 cm^2 each. The application rate for all products was 5 mg/cm^2.
After drying, the coated side of the slides were placed on MEA plates which had been previously seeded with a culture of C. albicans. The plates were incubated at 37° C. for 72 hours. The zone of inhibition was measured around the test slides at the end of the incubation period. Furthermore the slides were removed and an assessment of the growth of the test organism was made in the contact zone with the slide. All tests were performed in duplicate.

CC(C(=O)O)c1cccc(C(=O)c2ccccc2)c1 (stereo not drawn) [Ketoprofen, ketoprofen]
penetration / rate of release of Ketoprofen into the skin (FIG. 3) ([1]; Example 3, varying level of Dermacryl 79): the rate of the release of Ketoprofen into the skin of the subject can be varied | penetration of ketoprofen (FIG. 5) ([1]; Example 8, different hydrophobic polymers): can be controlled through the incorporation of hydrophobic polymers

Clc1ccccc1C(c1ccccc1)(c1ccccc1)n1ccnc1 [clotrimazole]
activity of clotrimazole in the gel film against C. albicans (Candida albicans): biologically active within the film according to the invention and in fact is more active than the commercial clotrimazole cream; also recorded: could be increased by addition of a plasticiser ie., propylene glycol
